Measured values published in ChEMBL document CHEMBL4184210, “Optimization of novel monobactams with activity against carbapenem-resistant Enterobacteriaceae - Identification of LYS228” (Bioorg Med Chem Lett, 2018).

Columns and labels:
[1] = system: Escherichia coli; assay: microbe, parasite or virus in culture
Description: Antimicrobial activity against Escherichia coli expressing beta-lactamase Oxa-48 by CLSI broth microdilution method

[2] = system: Escherichia coli; assay: microbe, parasite or virus in culture; remark: listed apart in the source
Description: Antimicrobial activity against Escherichia coli expressing beta-lactamase KPC-3 by CLSI broth microdilution method

[3] = system: Escherichia coli; assay: Antimicrobial activity against Escherichia coli expressing beta-lactamase KPC-2 by CLSI broth microdilution method; assay type: functional
[4] = system: Escherichia coli; assay: microbe, parasite or virus in culture; remark: listed apart in the source
Description: Antimicrobial activity against Escherichia coli expressing beta-lactamase Oxa-51 by CLSI broth microdilution method

[5] = system: Escherichia coli; assay: microbe, parasite or virus in culture; remark: listed apart in the source
Description: Antimicrobial activity against Escherichia coli expressing beta-lactamase CTXM-3 by CLSI broth microdilution method

[6] = system: Escherichia coli; assay: microbe, parasite or virus in culture; remark: listed apart in the source
Description: Antimicrobial activity against Escherichia coli expressing beta-lactamase Oxa-40 by CLSI broth microdilution method

[7] = system: Escherichia coli; assay: microbe, parasite or virus in culture; remark: listed apart in the source
Description: Antimicrobial activity against Escherichia coli expressing beta-lactamase KPC-4 by CLSI broth microdilution method

[8] = system: Escherichia coli; assay: microbe, parasite or virus in culture; remark: listed apart in the source
Description: Antimicrobial activity against Escherichia coli expressing beta-lactamase Oxa-18 by CLSI broth microdilution method

[9] = system: Pseudomonas aeruginosa; assay: Antimicrobial activity against Pseudomonas aeruginosa expressing delta-mexB/delta-mexXY/delta-mexCD and delta-ampC mutant by CLSI broth microdilution method; assay type: functional
[10] = system: Pseudomonas aeruginosa; assay: Antimicrobial activity against Pseudomonas aeruginosa expressing nalB/delta-mexXY/delta-mexCDoprJ/delta-ampC by CLSI broth microdilution method; assay type: functional
[11] = system: Escherichia coli; assay: microbe, parasite or virus in culture; remark: listed apart in the source
Description: Antimicrobial activity against Escherichia coli expressing beta-lactamase Oxa-181 by CLSI broth microdilution method

[12] = system: Escherichia coli; assay: microbe, parasite or virus in culture; remark: listed apart in the source
Description: Antimicrobial activity against Escherichia coli expressing beta-lactamase TEM-47 by CLSI broth microdilution method

[13] = system: Pseudomonas aeruginosa; assay: Antimicrobial activity against Pseudomonas aeruginosa ATCC 27853 by CLSI broth microdilution method; assay type: functional
[14] = system: Escherichia coli; assay: microbe, parasite or virus in culture; remark: listed apart in the source
Description: Antimicrobial activity against Escherichia coli expressing beta-lactamase IMI-1 by CLSI broth microdilution method

[15] = system: Escherichia coli; assay: Antimicrobial activity against Escherichia coli expressing beta-lactamase NDM-5 by CLSI broth microdilution method; assay type: functional
[16] = system: Escherichia coli; assay: microbe, parasite or virus in culture; remark: listed apart in the source
Description: Antimicrobial activity against Escherichia coli expressing beta-lactamase PER-1 by CLSI broth microdilution method

[17] = system: Escherichia coli; assay: microbe, parasite or virus in culture; remark: listed apart in the source
Description: Antimicrobial activity against Escherichia coli expressing beta-lactamase TEM-24 by CLSI broth microdilution method

[18] = system: Escherichia coli; assay: microbe, parasite or virus in culture; remark: listed apart in the source
Description: Antimicrobial activity against Escherichia coli expressing beta-lactamase IMP-1 by CLSI broth microdilution method

[19] = system: Escherichia coli; assay: microbe, parasite or virus in culture; remark: listed apart in the source
Description: Antimicrobial activity against Escherichia coli expressing beta-lactamase AmpC by CLSI broth microdilution method

[20] = system: Escherichia coli; assay: microbe, parasite or virus in culture; remark: listed apart in the source
Description: Antimicrobial activity against Escherichia coli expressing beta-lactamase P99 by CLSI broth microdilution method

[21] = system: Escherichia coli; assay: microbe, parasite or virus in culture; remark: listed apart in the source
Description: Antimicrobial activity against Escherichia coli expressing beta-lactamase Oxa-160 by CLSI broth microdilution method

[22] = system: Escherichia coli; assay: microbe, parasite or virus in culture; remark: listed apart in the source
Description: Antimicrobial activity against Escherichia coli expressing beta-lactamase GES-1 by CLSI broth microdilution method

[23] = system: Escherichia coli; assay: microbe, parasite or virus in culture; remark: listed apart in the source
Description: Antimicrobial activity against Escherichia coli expressing beta-lactamase GIM-1 by CLSI broth microdilution method

[24] = system: Escherichia coli; assay: microbe, parasite or virus in culture; remark: listed apart in the source
Description: Antimicrobial activity against Escherichia coli expressing beta-lactamase PER-4 by CLSI broth microdilution method

[25] = system: Escherichia coli; assay: microbe, parasite or virus in culture; remark: listed apart in the source
Description: Antimicrobial activity against Escherichia coli expressing beta-lactamase TEM-121 by CLSI broth microdilution method

[26] = system: Escherichia coli; assay: Antimicrobial activity against Escherichia coli expressing beta-lactamase TEM-1 by CLSI broth microdilution method; assay type: functional
[27] = system: Escherichia coli; assay: microbe, parasite or virus in culture; remark: listed apart in the source
Description: Antimicrobial activity against Escherichia coli expressing beta-lactamase CTXM-15 by CLSI broth microdilution method

[28] = system: Escherichia coli; assay: microbe, parasite or virus in culture; remark: listed apart in the source
Description: Antimicrobial activity against Escherichia coli expressing beta-lactamase VEB-7 by CLSI broth microdilution method

[29] = system: Escherichia coli; assay: microbe, parasite or virus in culture; remark: listed apart in the source
Description: Antimicrobial activity against Escherichia coli expressing beta-lactamase Oxa-225 by CLSI broth microdilution method

[30] = system: Escherichia coli; assay: microbe, parasite or virus in culture; remark: listed apart in the source
Description: Antimicrobial activity against Escherichia coli expressing beta-lactamase VEB-4 by CLSI broth microdilution method

[31] = system: Escherichia coli; assay: microbe, parasite or virus in culture; remark: listed apart in the source
Description: Antimicrobial activity against Escherichia coli expressing beta-lactamase SPM-1 by CLSI broth microdilution method

[32] = system: Escherichia coli; assay: microbe, parasite or virus in culture; remark: listed apart in the source
Description: Antimicrobial activity against Escherichia coli expressing beta-lactamase TEM-16 by CLSI broth microdilution method

[33] = system: Escherichia coli; assay: microbe, parasite or virus in culture; remark: listed apart in the source
Description: Antimicrobial activity against Escherichia coli expressing beta-lactamase SME-1 by CLSI broth microdilution method

[34] = system: Escherichia coli; assay: microbe, parasite or virus in culture; remark: listed apart in the source
Description: Antimicrobial activity against Escherichia coli expressing beta-lactamase KPC-8 by CLSI broth microdilution method

[35] = biological target: GABA A receptor alpha-2/beta-2/gamma-2 (Homo sapiens) (UniProt P47870+P18507+P47869); assay: Inhibition of recombinant human GABA A alpha2beta2gamma2 receptor expressed in CHO-K1 cells at 300 uM incubated at room temperature for 15 mins before the GABA addition fluorescence spectrometry; assay type: cell-based
[36] = system: Escherichia coli; assay: microbe, parasite or virus in culture; remark: listed apart in the source
Description: Antimicrobial activity against Escherichia coli expressing beta-lactamase MIR-1 by CLSI broth microdilution method

[37] = system: Escherichia coli; assay: microbe, parasite or virus in culture; remark: listed apart in the source
Description: Antimicrobial activity against Escherichia coli expressing beta-lactamase SHV-12 by CLSI broth microdilution method

[38] = system: Escherichia coli; assay: microbe, parasite or virus in culture; remark: listed apart in the source
Description: Antimicrobial activity against Escherichia coli expressing beta-lactamase Oxa-10 by CLSI broth microdilution method

[39] = system: Escherichia coli; assay: microbe, parasite or virus in culture; remark: listed apart in the source
Description: Antimicrobial activity against Escherichia coli expressing beta-lactamase CMY-2 by CLSI broth microdilution method

[40] = system: Escherichia coli; assay: microbe, parasite or virus in culture; remark: listed apart in the source
Description: Antimicrobial activity against Escherichia coli expressing beta-lactamase TEM-10 by CLSI broth microdilution method

[41] = system: Escherichia coli; assay: microbe, parasite or virus in culture; remark: listed apart in the source
Description: Antimicrobial activity against Escherichia coli expressing beta-lactamase PER-2 by CLSI broth microdilution method

[42] = system: Escherichia coli; assay: microbe, parasite or virus in culture; remark: listed apart in the source
Description: Antimicrobial activity against Escherichia coli expressing beta-lactamase Oxa-146 by CLSI broth microdilution method

[43] = system: Escherichia coli; assay: microbe, parasite or virus in culture; remark: listed apart in the source
Description: Antimicrobial activity against Escherichia coli expressing beta-lactamase NMC-A by CLSI broth microdilution method

[44] = system: Escherichia coli; assay: Antimicrobial activity against Escherichia coli expressing beta-lactamase VEB-1 by CLSI broth microdilution method; assay type: functional
[45] = system: Escherichia coli; assay: microbe, parasite or virus in culture; remark: listed apart in the source
Description: Antimicrobial activity against Escherichia coli expressing beta-lactamase DHA by CLSI broth microdilution method

[46] = system: Pseudomonas aeruginosa; assay: Antimicrobial activity against Pseudomonas aeruginosa expressing delta-mexB/mexXY/delta-ampDh2/ delta-ampD by CLSI broth microdilution method; assay type: functional
[47] = system: Escherichia coli; assay: microbe, parasite or virus in culture; remark: listed apart in the source
Description: Antimicrobial activity against Escherichia coli expressing beta-lactamase VIM-1 by CLSI broth microdilution method

[48] = system: Escherichia coli; assay: microbe, parasite or virus in culture; remark: listed apart in the source
Description: Antimicrobial activity against wild type Escherichia coli by CLSI broth microdilution method

[49] = system: Escherichia coli; assay: Antimicrobial activity against Escherichia coli expressing beta-lactamase NDM-1 by CLSI broth microdilution method; assay type: functional
[50] = system: Escherichia coli; assay: microbe, parasite or virus in culture; remark: listed apart in the source
Description: Antimicrobial activity against Escherichia coli expressing beta-lactamase Oxa-23 by CLSI broth microdilution method

N=C(NC1CCNCC1)c1ccc(OC[C@H](O/N=C(\C(=O)N[C@@H]2C(=O)N(S(=O)(=O)O)[C@@H]2Cn2cncn2)c2csc(N)n2)C(=O)O)cc1 (stereo in doubt)
32 µg/mL: MIC [8]
35%: inhibition [35]
0.125 µg/mL: MIC [1] | MIC [3] | MIC [4] | MIC [5] | MIC [12] | MIC [14] | MIC [18] | MIC [23] | MIC [27] | MIC [31] | MIC [33] | MIC [38] | MIC [43] | MIC [47] | MIC [48] | MIC [49] | MIC [50]
2 µg/mL: MIC [13]
0.5 µg/mL: MIC [15] | MIC [17] | MIC [20] | MIC [34] | MIC [37] | MIC [39]
> 64 µg/mL: MIC [16] | MIC [24] | MIC [41]
64 µg/mL: MIC [28] | MIC [30] | MIC [44]
0.25 µg/mL: MIC [2] | MIC [6] | MIC [11] | MIC [19] | MIC [21] | MIC [22] | MIC [26] | MIC [29] | MIC [32] | MIC [36]
1 µg/mL: MIC [7] | MIC [9] | MIC [25] | MIC [40] | MIC [42] | MIC [45]
8 µg/mL: MIC [10]
16 µg/mL: MIC [46]

C[C@@H](O)[C@H]1C(=O)N2C(C(=O)O)=C(SCCNC=N)C[C@H]12 [IMIPENEM ANHYDROUS]
16 µg/mL: MIC [15] | MIC [49]
0.5 µg/mL: MIC [36]
2 to 16 µg/mL: MIC [3]
1 µg/mL: MIC [1] | MIC [6] | MIC [7] | MIC [11] | MIC [21] | MIC [23] | MIC [29] | MIC [31] | MIC [50]
2 µg/mL: MIC [2] | MIC [14] | MIC [18] | MIC [34] | MIC [43] | MIC [47]
0.125 µg/mL: MIC [44]
0.25 µg/mL: MIC [4] | MIC [5] | MIC [8] | MIC [16] | MIC [17] | MIC [19] | MIC [20] | MIC [22] | MIC [24] | MIC [25] | MIC [28] | MIC [30] | MIC [32] | MIC [37] | MIC [38] | MIC [39] | MIC [40] | MIC [41] | MIC [42]
15%: inhibition [35]
